From patent US8992891B2, “Therapeutic approaches for treating CMT and related disorders” (Pharnext, priority 2007, dated 2015)

What was measured:
PMP22 mRNA = PMP22 mRNA level by quantitative RT-PCR after drug stimulation of rat Schwann cell primary culture; assay type: cell-based; design: key: +: significantly decreases PMP22 levels compared to control; details: rat primary Schwann cells, drug incubation 24 hrs
Procedure: After cells being platted in 12 well-dishes, the medium is replaced by a defined medium consisting in a mix of DMEM-F12 (Invitrogen #21331020) complemented by 1% of N2 supplement (Invitrogen #17502), 1% L-Glutamine (Invitrogen #25030024) 2.5% FBS (Sciencell #0025), 0.02 μg/ml of corticosterone (Sigma #C2505), 4 μM Forskolin and 50 μg/ml of gentamycin. Growth factors are not added to this medium, to promote SC differentiation
24 hours later, the medium is replaced by a defined medium (DMEM-F12) complemented with 1% Insulin-Transferrin-Selenium-X (ITS, Invitrogen #51300), 16 μg/ml of Putrescine (Sigma #P5780), 0.02 μg/ml of corticosterone and 50 μg/ml of gentamicin. At this step, neither progesterone nor forskolin are present in the medium.
One day later, Schwann cells are stimulated by combinations of drugs or drugs alone during 24 hrs (3 wells/condition). The preparation of each compound is performed just prior to its addition to the cell culture medium.
Drugs are added to a defined medium composed of DMEM-F12, with 1% Insulin-Transferrin-Selenium-X (ITS, Invitrogen #51300), 16 μg/ml of Putrescine, 0.02 μg/ml of corticosterone, 10 nM Progesterone and 50 μg/ml of gentamicin. The absence of Forskolin during drug stimulation avoids adenylate cyclase saturation.
Quantitative RT-PCR is used to compare the levels of PMP22 mRNA after drug stimulation, relative with housekeeping Ribosomal L13A mRNA in rat Schwann cell primary culture.
After rinsing with cold sterilized PBS, total RNAs from each cell sample are extracted and purified from SC using the Qiagen RNeasy micro kit (Qiagen #74004). Nucleic acids are quantified by Nanodrop spectrophotometer using 1 μl of RNA sample. The RNA integrity is determined through a BioAnalyzer (Agilent) apparatus.
RNAs are reverse-transcribed into cDNA according to standard protocol. cDNA templates for PCR amplification are synthesized from 200 ng of total RNA using SuperScript II reverse-transcriptase (Invitrogen #18064-014) for 60 min at 42° C. in the presence of oligo(dT), in a final volume of 20 μl.
cDNAs are subjected to PCR amplification using the ? LightCycler® 480 ? system (Roche Molecular Systems Inc.) Each cDNA are diluted five times before being used for PCR amplification. 2.5 μl of this cDNAs enters the PCR reaction solution (final volume of 10 μl). Preliminary experiments ensured that quantitation was done in the exponential phase of the amplification process for both sequences and that expression of the reference gene was uniform in the different culture conditions.
PCR reaction is performed by amplification of 500 nM of forward primer of rat PMP22 (NM_017037), 5-GGAAACGCGAATGAGGC-3 (SEQ ID NO: 1), and 500 nM of reverse primer 5-GTTCTGTTTGGTTTGGCTT-3 (SEQ ID NO: 2) (amplification of 148-bp). A 152-bp fragment of the RPL13A ribosomal (NM_173340) RNA is amplified in parallel in separate reactions for normalization of the results by using 500 nM of forward primer 5-CTGCCCTCAAGGTTGTG-3 (SEQ ID NO: 3), and 500 nM of reverse primer 5-[…]-3 (SEQ ID NO: 4).
We used FRET chemistry to perform RT-Q-PCR analysis. FRET probes are composed of 0.3 μM of Pmp22-FL-5-[…] (SEQ ID NO: 5) or Rpl13A-FL-5-TCGGGTGGAAGTACCAGCC (SEQ ID NO: 6), labelled at their 3′ end with a donor fluorophore dye (Fluorescein). 0.15 μM Red640 probes are defined as follows: Pmp22-red-5′-[…]- (SEQ ID NO: 7) or Rpl13A-red-5′-[…] (SEQ ID NO: 8), labelled at their 5′ end with an acceptor fluorophore dye (Rhodamine Red 640).
Each PCR reaction contained 2.5 μl cDNA template in a final volume of 10 μl of master mix kit (Roche #04-887301001).
The following PCR conditions are used: 10 sec at 95° C., 10 sec at 63° C. and 12 sec at 72° C. and 30 sec at 40° C. (Forty amplification cycles). The relative levels of PMP22 gene expression is measured by determining the ratio between the products generated from the target gene PMP22 and the endogenous internal standard RPL13A. […]

PMP22 protein = PMP22 protein expression analysis by flow cytometry (FACS) in Schwann cells; assay type: cell-based, rat; design: key to Protein (PMP22 expression decrease): +: significantly decreases PMP22 levels compared to control; details: rat primary Schwann cells, FACS, 24 hrs
Procedure: One day later, Schwann cells are stimulated by combinations of drugs or drugs alone during 24 hrs (3 wells/condition). The preparation of each compound is performed just prior to its addition to the cell culture medium. Drugs are added to a defined medium composed of DMEM-F12, with 1% Insulin-Transferrin-Selenium-X (ITS, Invitrogen #51300), 16 μg/ml of Putrescine, 0.02 μg/ml of corticosterone, 10 nM Progesterone and 50 μg/ml of gentamicin. The absence of Forskolin during drug stimulation avoids adenylate cyclase saturation. 8 hrs, 24 hrs and 48 hrs after drugs incubation, supernatants are recovered, centrifuged and frozen. SC are detached with trypsin-EDTA. As soon as the majority of cells are in suspension, the trypsin is neutralised using DMEM with 10% FCS. Supernatants with cells are recovered and centrifuged. The pellets of cells are transferred in micro tubes, washed in PBS once and fixed with a specific solution (AbCys #Reagent A BUF09B). 10 minutes later, cells are rinsed once with PBS and kept at 4° C. Five days after cell fixation, all cell preparations with different incubation times are labelled using the following protocol. […] Cells are then centrifuged at 7000 rpm for 5 minutes and cell pellets are rinsed once in PBS. A secondary antibody is added, coupled to Alexa Fluor 488 (goat anti-rabbit IgG, Molecular Probes #A11008, 1/100), for one hour at room temperature. Cells are then centrifuged at 7000 rpm for 5 minutes and cell pellets are rinsed once in PBS. The labelling is increased adding a tertiary antibody coupled to Alexa Fluor 488 (chicken anti-goat IgG, Molecular Probes #A21467, 1/100) for one hour incubation, at room temperature. Cells are then rinsed once in PBS. Control without any antibody (unlabelled cells) is performed to determine the level of autofluorescence and adapted the sensitivity of the photomultiplicators. Control with both secondary and tertiary antibodies but without primary antibody, is performed to assess non specific binding of antibodies. Data acquisition and analysis are performed with a FACS Array cytometer and FACS Array software (Becton Dickinson) on 5000 cells. Forward Scatter (FSC) correlated with cell volume (size) and Side Scatter (SSC) depending on inner complexity of cells (granularity) are analysed. For expression of PMP22, analysis is performed within the total cells and percent of positive cells is calculated. Positive cells are cells with fluorescence intensity higher than the control with secondary antibody. We tested the ability of some drugs to inhibit PMP22 protein expression (FACS analysis). […] The results of the action of some individual drugs on the protein level of PMP22 are also shown on table 1 above.

PMP22 = details: transgenic rodent models with over expression of PMP22; cited from earlier work

Structure (SMILES)	mRNA (PMP22 expression decrease) (PMP22 mRNA)	Protein (PMP22 expression decrease) (PMP22 protein)	PMP22 expression in the transgenic animals (PMP22)
NCC(CC(=O)O)c1ccc(Cl)cc1 (stereo not drawn) [Baclofen]	+		
O=C(O)Cc1ccccc1Nc1c(Cl)cccc1Cl [Diclofenac]	+	+	
CCN(CC)C(=S)SSC(=S)N(CC)CC [Disulfiram]	+		
C[C@]12CC[C@@H]3c4ccc(O)cc4CC[C@H]3[C@@H]1CC[C@@H]2O [Estradiol-b, Estradiol]	+		
CC(C)OC(=O)C(C)(C)Oc1ccc(C(=O)c2ccc(Cl)cc2)cc1 [Fenofibrate]	+		
CC(C(=O)O)c1ccc(-c2ccccc2)c(F)c1 (stereo not drawn) [Flurbiprofen]	+	+	
O=C(CCCN1CCC(O)(c2ccc(Cl)cc2)CC1)c1ccc(F)cc1 [Haloperidol]	+		
COc1ccc2c(c1)c(CC(=O)O)c(C)n2C(=O)c1ccc(Cl)cc1 [Indomethacin]	+	+	
CC(C)NCC(O)c1ccc(O)c(O)c1 (stereo not drawn) [Isoproterenol]	+		
CC(C(=O)O)c1cccc(C(=O)c2ccccc2)c1 (stereo not drawn) [Ketoprofen]	+	+	
Cc1cnc(NC(=O)C2=C(O)c3ccccc3S(=O)(=O)N2C)s1 [Meloxicam]	+	+	
CC#C[C@]1(O)CC[C@H]2[C@@H]3CCC4=CC(=O)CCC4=C3[C@@H](c3ccc(N(C)C)cc3)C[C@@]21C [Mifepristone]	+		
CC(C)(O)c1ccccc1CC[C@@H](SCC1(CC(=O)O)CC1)c1cccc(/C=C/c2ccc3ccc(Cl)cc3n2)c1 [Montelukast]	+		
O=C1CC[C@@]2(O)[C@H]3Cc4ccc(O)c5c4[C@@]2(CCN3CC2CC2)[C@H]1O5 [Naltrexone]	+		
CCC(C)(C)C(=O)O[C@H]1C[C@@H](C)C=C2C=C[C@H](C)[C@H](CC[C@@H]3C[C@@H](O)CC(=O)O3)[C@H]21 [Simvastatin]	+		
OC[C@@H](O)[C@@H](O)[C@H](O)[C@@H](O)CO [Sorbitol, D-Sorbitol]	+		
C[C@]12CC[C@H]3[C@@H](CC[C@@]45O[C@@H]4C(O)=C(C#N)C[C@]35C)[C@@H]1CC[C@@H]2O [Trilostane]	+		
O=C1O[C@H]([C@@H](O)CO)C(O)=C1O [ascorbic acid]			decreased this expression
CN(C)c1ccc([C@H]2C[C@]3(C)[C@@H](CC[C@]3(O)CCCO)[C@@H]3CCC4=CC(=O)CCC4=C32)cc1 [onapristone]			decreased this expression
